# Reference: patent US20080249074A1, “Composition for the Transdermal Administration of Physiologically Active Agents” (LABORATORIOS BELMAC, S.A., priority 2005, published 2008)
# Tested on: carrageenan-induced rat paw plantar edema
# Experiment: Anti-inflammatory effect of oleuropein compositions in the form of an oil
# Assay type: in vivo
# Settings: for increase % vs. V0 / inhibition % vs. blank-vehicle / increase vs. V0 % / inhibition vs. blank-vehicle %: topical; for increase % vs. V0 / inhibition % vs. blank-vehicle: V1, 60 minutes; for increase vs. V0 % / inhibition vs. blank-vehicle %: V2, 180 minutes
# Method: The test was performed according to the method disclosed by Winter et al. (Proc. Soc. Exp. Biol. Med. 1962; vol. 111, pp. 544-547), adapted to the rat paw. The method consisted in the injection of 100 μl of a 0.75% carrageenan solution in physiological saline in the plantar face of the left hind paw of the rat. The volume of the paws was determined by a plethysmometer just before the injection of the carrageenan (V0), 60 minutes after the injection (V1) and 180 minutes (V2) after the injection.
# The tested substances were administered topically according to a modification of the method disclosed by Mass6 et al. (Rev. Farmacol. Clin. Exp. 1990, vol. 7, p. 85), following a blind and randomized trial. 100 μl of the substance to be tested were applied over the paw of the animal, spread over the whole surface of the paw, massaging until the complete absorption. The application was repeated 2 times, namely 18 h before the injection of carrageenan and 60 minutes before said injection. Simultaneously to the application, 30 ml/kg of distilled water were administered orally.
# Using the method described in Example 7, the anti-inflammatory effect of the four compositions in the form of an oil prepared according to Example 1, which comprised a 0.1%, 0.2%, 0.4%, and 0.8% of oleuropein w/w, respectively, was studied. The blank-vehicle was prepared by the same method as the compositions tested excluding the active ingredient.
# The mean±S.E.M. of the volumes of the animal paws was calculated for the three observation periods V0, V1 and V2. The average values of every experimental group were used for the determination of the average increase of the volume of the paws as an effect of the injection of carrageenan during the periods of observation V1 and V2 with regard to the initial volume (V0), and, then, the percentages of the variation of said values with regard to the blank-vehicle group were determined. Finally, the 50% Effective Concentration (EC 50) was calculated through a linear regression optimized by the least squares method. The evaluation of the statistic signification of the variation was performed by the Student's t-test for independent data using a p<0.05 level to establish the difference criteria. […] However, as estimation, it is obtained that EC 50 of the oleuropein composition in the form of an oil is about 0.7%.
structure (smiles),measurement,setting,value
"C/C=C1/[C@H](O[C@@H]2O[C@H](CO)[C@@H](O)[C@H](O)[C@H]2O)OC=C(C(=O)OC)[C@H]1CC(=O)OCCc1ccc(O)c(O)c1 [Oleuropein, oleuropein]",increase % vs. V0,0.1% (w/w) oleuropein oil,27.39%
same,inhibition % vs. blank-vehicle,0.1% (w/w) oleuropein oil,14.62%
same,increase vs. V0 %,0.1% (w/w) oleuropein oil,43.59%
same,inhibition vs. blank-vehicle %,0.1% (w/w) oleuropein oil,12.38%
same,increase % vs. V0,0.2% (w/w) oleuropein oil,24.75%
same,inhibition % vs. blank-vehicle,0.2% (w/w) oleuropein oil,22.86%
same,increase vs. V0 %,0.2% (w/w) oleuropein oil,36.80%
same,inhibition vs. blank-vehicle %,0.2% (w/w) oleuropein oil,26.03%
same,increase % vs. V0,0.4% (w/w) oleuropein oil,18.55%
same,inhibition % vs. blank-vehicle,0.4% (w/w) oleuropein oil,42.19%
same,increase vs. V0 %,0.4% (w/w) oleuropein oil,26.80%
same,inhibition vs. blank-vehicle %,0.4% (w/w) oleuropein oil,46.13%
same,increase % vs. V0,0.8% (w/w) oleuropein oil,16.13%
same,inhibition % vs. blank-vehicle,0.8% (w/w) oleuropein oil,49.73%
same,increase vs. V0 %,0.8% (w/w) oleuropein oil,25.71%
same,inhibition vs. blank-vehicle %,0.8% (w/w) oleuropein oil,48.31%
same,"maximum estimated effect, inhibition",oily composition of oleuropein,about 50%
same,concentration up to which the effect is lineal,oleuropein concentration in the oil composition,about 0.4%
same,50% Effective Concentration (EC 50),"oleuropein concentration in the oil composition, linear regression by least squares, estimation",about 0.7%
